Test results published in US12077503B2, “Substituted cyclic amides and their use as herbicides” (FMC CORPORATION, priority 2015, dated 2024).

Columns and labels:
Format in all cases: in vivo
[1] = tested on: giant foxtail (Setaria faberii); assay: Test A preemergence; conditions: Setaria faberi, pre-emergence, 240 h
Summary of the method: (§1)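 Greenhouse, ~10 d after spray; visual injury vs untreated controls, 0 = no effect, 100 = complete control. Preemergence: directed soil spray over planted seeds. Postemergence: plants 2–10 cm, 1–2 leaf stage. Loam/sand blend. Compound in non-phytotoxic solvent with surfactant.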

Kochia (Kochia scoparia) [2] = assay: Test A preemergence; conditions: Bassia scoparia, pre-emergence, 240 h
Summary of the method: as §1

[3] = tested on: barnyardgrass (Echinochloa crus-galli); assay: Test A preemergence; conditions: Echinochloa crus-galli, pre-emergence, 240 h
Summary of the method: as §1

[4] = tested on: ryegrass, Italian (Italian ryegrass, Lolium multiflorum); assay: Test A preemergence; conditions: Lolium multiflorum, pre-emergence, 240 h
Summary of the method: as §1

[5] = tested on: ragweed (common ragweed, Ambrosia elatior); assay: Test A preemergence; conditions: Ambrosia artemisiifolia, pre-emergence, 240 h
Summary of the method: as §1

[6] = tested on: pigweed (Amaranthus retroflexus); assay: Test A preemergence; conditions: Amaranthus retroflexus, pre-emergence, 240 h
[7] = tested on: Galium (catchweed bedstraw, Galium aparine); assay: Test A postemergence; conditions: Galium, post-emergence, 240 h, 125 g ai/ha, Postemergence; visual injury after approximately 10 d; 0 to 100 scale where 0 is no effect and 100 is complete control; read-out: Plant response rating, Galium
Summary of the method: as §1

[8] = tested on: giant foxtail (Setaria faberii); assay: Test A postemergence; conditions: Setaria faberi, post-emergence, 240 h, 125 g ai/ha, Postemergence; visual injury after approximately 10 d; 0 to 100 scale where 0 is no effect and 100 is complete control; read-out: Plant response rating, Foxtail, Giant
Summary of the method: as §1

corn (Zea mays) = assay: Test A postemergence; conditions: Zea mays, post-emergence, 240 h, 125 g ai/ha, Postemergence; visual injury after approximately 10 d; 0 to 100 scale where 0 is no effect and 100 is complete control
Summary of the method: as §1

Kochia (Kochia scoparia) [9] = assay: Test A postemergence; conditions: Bassia scoparia, post-emergence, 240 h, 125 g ai/ha, Postemergence; visual injury after approximately 10 d; 0 to 100 scale where 0 is no effect and 100 is complete control; read-out: Plant response rating, Kochia
Summary of the method: as §1

[10] = tested on: barnyardgrass (Echinochloa crus-galli); assay: Test A postemergence; conditions: Echinochloa crus-galli, post-emergence, 240 h, 125 g ai/ha, Postemergence; visual injury after approximately 10 d; 0 to 100 scale where 0 is no effect and 100 is complete control; read-out: Plant response rating, Barnyardgrass
Summary of the method: as §1

[11] = tested on: blackgrass (Alopecurus myosuroides); assay: Test A postemergence; conditions: Alopecurus myosuroides, post-emergence, 240 h, 125 g ai/ha, Postemergence; visual injury after approximately 10 d; 0 to 100 scale where 0 is no effect and 100 is complete control; read-out: Plant response rating, Blackgrass
Summary of the method: as §1

[12] = tested on: ryegrass, Italian (Italian ryegrass, Lolium multiflorum); assay: Test A postemergence; conditions: Lolium multiflorum, post-emergence, 240 h, 125 g ai/ha, Postemergence; visual injury after approximately 10 d; 0 to 100 scale where 0 is no effect and 100 is complete control; read-out: Plant response rating, Ryegrass, Italian
Summary of the method: as §1

[13] = tested on: ragweed (common ragweed, Ambrosia elatior); assay: Test A postemergence; conditions: Ambrosia artemisiifolia, post-emergence, 240 h, 125 g ai/ha, Postemergence; visual injury after approximately 10 d; 0 to 100 scale where 0 is no effect and 100 is complete control; read-out: Plant response rating, Ragweed
Summary of the method: as §1

[14] = tested on: pigweed (Amaranthus retroflexus); assay: Test A postemergence; conditions: Amaranthus retroflexus, post-emergence, 240 h, 125 g ai/ha, Postemergence; visual injury after approximately 10 d; 0 to 100 scale where 0 is no effect and 100 is complete control; read-out: Plant response rating, Pigweed
Summary of the method: as §1

[15] = tested on: wheat (Triticum aestivum); assay: Test A postemergence; conditions: Triticum aestivum, post-emergence, 240 h, 125 g ai/ha, Postemergence; visual injury after approximately 10 d; 0 to 100 scale where 0 is no effect and 100 is complete control; read-out: Plant response rating, Wheat
Summary of the method: as §1

rice (Oryra sativa) = assay: Test B flooded paddy test; conditions: Oryza sativa, Flood, 250 g ai/ha; scale of 0 to 100 where 0 is no effect and 100 is complete control; read-out: Rice plant response rating
Summary of the method: (§2)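 2-leaf plants; pots flooded 3 cm over soil; cpd added to paddy water; depth held; greenhouse 13–15 d; visual rating vs controls, 0 = no effect, 100 = complete control.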

[16] = tested on: ducksalad (Heteranthera limosa); assay: Test B flooded paddy test; conditions: Heteranthera limosa, Flood, 250 g ai/ha; scale of 0 to 100 where 0 is no effect and 100 is complete control; read-out: Ducksalad plant response rating
Summary of the method: as §2

[17] = tested on: barnyardgrass (Echinochloa crus-galli); assay: Test B flooded paddy test; conditions: Echinochloa crus-galli, Flood, 250 g ai/ha; scale of 0 to 100 where 0 is no effect and 100 is complete control; read-out: Barnyardgrass plant response rating
Summary of the method: as §2

[18] = tested on: sedge, umbrella (small-flower umbrella sedge, Cyperus difformis); assay: Test B flooded paddy test; conditions: Cyperus difformis, Flood, 250 g ai/ha; scale of 0 to 100 where 0 is no effect and 100 is complete control; read-out: Sedge, Umbrella plant response rating
Summary of the method: as §2

Question: Which pest or weed control at 125 g/ha ([1]; 125 g ai/ha, Preemergence, visual injury rating after approximately 10 d, read-out: Foxtail, Giant plant response rating (0 to 100 scale, 0 is no effect, 100 is complete control)) does the source give for CN1C[C@H](c2csc(C(F)(F)F)c2)[C@@H](C(=O)Nc2ccccc2F)C1=O [Compound 958] here?
Answer: Its pest or weed control at 125 g/ha is 90%.

Question: What about the pest or weed control at 500 g/ha ([1]; 500 g ai/ha, preemergence, visual injury rating about 10 d after treatment, 0 to 100 scale (0 no effect, 100 complete control), read-out: Foxtail, Giant plant response rating) of the same compound?
Answer: Its pest or weed control at 500 g/ha is 90%.

Question: What about the pest or weed control at 125 g/ha (Kochia (Kochia scoparia) [2]; 125 g ai/ha, Preemergence, visual injury rating after approximately 10 d, read-out: Kochia plant response rating (0 to 100 scale, 0 is no effect, 100 is complete control)) of the same compound?
Answer: The pest or weed control at 125 g/ha was 0%.

Question: And the pest or weed control at 500 g/ha (Kochia (Kochia scoparia) [2]; 500 g ai/ha, preemergence, visual injury rating about 10 d after treatment, 0 to 100 scale (0 no effect, 100 complete control), read-out: Kochia plant response rating)?
Answer: The pest or weed control at 500 g/ha was 90%.

Question: And the pest or weed control at 125 g/ha ([3]; 125 g ai/ha, Preemergence, visual injury rating after approximately 10 d, read-out: Barnyardgrass plant response rating (0 to 100 scale, 0 is no effect, 100 is complete control))?
Answer: The pest or weed control at 125 g/ha was 90%.

Question: What about the pest or weed control at 500 g/ha ([3]; 500 g ai/ha, preemergence, visual injury rating about 10 d after treatment, 0 to 100 scale (0 no effect, 100 complete control), read-out: Barnyardgrass plant response rating) of the same compound?
Answer: Its pest or weed control at 500 g/ha is 90%.

Question: What about the pest or weed control at 125 g/ha ([4]; 125 g ai/ha, Preemergence, visual injury rating after approximately 10 d, read-out: Ryegrass, Italian plant response rating (0 to 100 scale, 0 is no effect, 100 is complete control)) of the same compound?
Answer: Its pest or weed control at 125 g/ha is 0%.

Question: What about the pest or weed control at 500 g/ha ([4]; 500 g ai/ha, preemergence, visual injury rating about 10 d after treatment, 0 to 100 scale (0 no effect, 100 complete control), read-out: Ryegrass, Italian plant response rating) of the same compound?
Answer: Its pest or weed control at 500 g/ha is 20%.

Question: And the pest or weed control at 125 g/ha ([5]; 125 g ai/ha, Preemergence, visual injury rating after approximately 10 d, read-out: Ragweed plant response rating (0 to 100 scale, 0 is no effect, 100 is complete control))?
Answer: The pest or weed control at 125 g/ha was 20%.

Question: And the pest or weed control at 500 g/ha ([5]; 500 g ai/ha, preemergence, visual injury rating about 10 d after treatment, 0 to 100 scale (0 no effect, 100 complete control), read-out: Ragweed plant response rating)?
Answer: The pest or weed control at 500 g/ha was 60%.

Question: What about the pest or weed control at 125 g/ha ([6]; 125 g ai/ha, Preemergence, visual injury rating after approximately 10 d, read-out: Pigweed plant response rating (0 to 100 scale, 0 is no effect, 100 is complete control)) of the same compound?
Answer: Its pest or weed control at 125 g/ha is 0%.

Question: And the pest or weed control at 500 g/ha ([6]; 500 g ai/ha, preemergence, visual injury rating about 10 d after treatment, 0 to 100 scale (0 no effect, 100 complete control), read-out: Pigweed plant response rating)?
Answer: The pest or weed control at 500 g/ha was 30%.

Question: What about the pest or weed control at 125 g/ha [7] of the same compound?
Answer: The pest or weed control at 125 g/ha was 30%.

Question: What about the pest or weed control at 125 g/ha [8] of the same compound?
Answer: The pest or weed control at 125 g/ha was 90%.

Question: What about the Corn plant response rating (crop injury, 0 = no effect, 100 = complete kill) at 125 g/ha (corn (Zea mays)) of the same compound?
Answer: The Corn plant response rating (crop injury, 0 = no effect, 100 = complete kill) at 125 g/ha was 0%.

Question: And the pest or weed control at 125 g/ha (Kochia (Kochia scoparia) [9])?
Answer: The pest or weed control at 125 g/ha was 0%.

Question: What about the pest or weed control at 125 g/ha [10] of the same compound?
Answer: Its pest or weed control at 125 g/ha is 70%.

Question: What about the pest or weed control at 125 g/ha [11] of the same compound?
Answer: The pest or weed control at 125 g/ha was 30%.

Question: And the pest or weed control at 125 g/ha [12]?
Answer: Its pest or weed control at 125 g/ha is 0%.

Question: And the pest or weed control at 125 g/ha [13]?
Answer: Its pest or weed control at 125 g/ha is 0%.

Question: What about the pest or weed control at 125 g/ha [14] of the same compound?
Answer: Its pest or weed control at 125 g/ha is 0%.

Question: And the plant injury at 125 g/ha [15]?
Answer: Its plant injury at 125 g/ha is 0%.

Question: What about the pest or weed control at 250 g/ha (rice (Oryra sativa)) of the same compound?
Answer: The pest or weed control at 250 g/ha was 15%.

Question: And the pest or weed control at 250 g/ha [16]?
Answer: The pest or weed control at 250 g/ha was 100%.

Question: And the pest or weed control at 250 g/ha [17]?
Answer: The pest or weed control at 250 g/ha was 55%.

Question: And the pest or weed control at 250 g/ha [18]?
Answer: The pest or weed control at 250 g/ha was 0%.
